≈ marks a conversion by molar mass, not a printed value.
What was measured:
Format in all cases: cell-based
[1] = tested on: Bacillus cereus (ATCC 11778); experiment: MIC susceptibility test, microdilution with MTT readout; conditions: for MIC: Bacillus cereus, ATCC11778, read-out: MIC BC; for MIC BC: Bacillus ceres ATCC11778
In short: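 Bacillus cereus ATCC® 11778 susceptibility was measured by broth microdilution in 96-well microplates using Cation Adjusted Mueller-Hinton broth. Samples were diluted two-fold from 5 μg/mL over 12 steps. Each well combined 100 μL of cell suspension (10^6 CFU/mL) with 100 μL of antibiotic solution and was incubated at 37° C. for 24 h. Then 50 μL of MTT (1 mg/mL) was added for 30 min, and MIC (μg/mL) was read as the lowest concentration inhibiting growth.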

[2] = tested on: Enterococcus faecalis (ATCC 29212); experiment: as above; conditions: Enterococcus faecalis ATCC29212; for MIC: read-out: MIC EF
In short: (§1)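 Broth microdilution in cation-adjusted Mueller-Hinton broth, 12-step two-fold series from 5 μg/mL to […], mixed 1:1 with 10^6 CFU/mL cell suspension and incubated 24 h at 37 °C. MTT (1 mg/mL solution) is then added for 30 min (S. aureus, MRSA) or 2 h (E. faecalis strains). MIC = lowest concentration inhibiting growth.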

[3] = tested on: Methicillin resistant Staphylococcus aureus (ATCC 33591); experiment: as above; conditions: Staphylococcus aureus ATCC3359, Methicillin resistance; for MIC: ATCC 3359 / ATCC 33591 / MRSA, read-out: MIC MRSA
In short: as §1

[4] = tested on: Staphylococcus aureus (ATCC 29213); experiment: as above; conditions: Staphylococcus aureus ATCC29213; for MIC: read-out: MIC SA
In short: as §1

[5] = tested on: gentamicin, streptmycin, vancomycin resistant Enterococcus faecalis (ATCC 51299); experiment: microbe, parasite or virus in culture; conditions: for MIC: Enterococcus faecalis, ATCC51299, read-out: MIC VREF; for MIC VREF: Enterococcus faecalis ATCC51299, vancomycin resistance
In short: as §1

[6] = tested on: Enterococcus faecium CL5137, VanA; experiment: MIC susceptibility test; conditions: Enterococcus faecium CL5137, VanA; for MIC: read-out: MIC CL5137
[7] = tested on: Enterococcus faecalis CL5244, VanB; experiment: MIC susceptibility test; conditions: Enterococcus faecalis CL5244, VanB; for MIC: read-out: MIC CL5244
In short: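 MTT-based broth microdilution in cation-adjusted Mueller-Hinton broth; two-fold 12-step dilutions […], inoculum 10^6 CFU/mL, 37° C for 24 h.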

Compound | MIC [1] [µg/mL] | MIC [2] [µg/mL] | MIC [3] [µg/mL] | MIC [4] [µg/mL] | MIC [5] [µg/mL] | MIC [6] [µg/mL] | MIC [7] [µg/mL] | MIC BC [1] [µg/mL] | MIC EF [2] [µg/mL] | MIC MRSA [3] [µg/mL] | MIC SA [4] [µg/mL] | MIC VREF [5] [µg/mL] | MIC CL5137 [6] | MIC CL5244 [7]
CN[C@@H](CC(C)C)C(=O)N[C@H]1C(=O)N[C@@H](CC(N)=O)C(=O)N[C@H]2C(=O)NC3C(=O)N[C@H](C(=O)N[C@@H](C(=O)O)c4cc(O)cc(O)c4-c4cc3ccc4O)[C@H](O)c3ccc(c(Cl)c3)Oc3cc2cc(c3OC2OC(CSc3nc(-c4ccccc4)c(-c4ccccc4)o3)C(O)C(O)C2OC2CC(C)(NCc3ccc(-c4ccc(Cl)cc4)cc3)C(O)C(C)O2)Oc2ccc(cc2Cl)[C@H]1O (stereo partly shown) [LXXXVII, N-4-(4-Chlorophenyl)benzylvancosamine-glucose-C6-2-thio-4,5-diphenyloxazole Vancomycin] | > 5 | 5 (≈ 2.65 µM) | > 5 | > 5 | 5 (≈ 2.65 µM) | 50 (≈ 26.5 µM) | 10 (≈ 5.3 µM) | – | – | – | – | – | – | –
CN[C@@H](CC(C)C)C(=O)N[C@H]1C(=O)N[C@@H](CC(N)=O)C(=O)N[C@H]2C(=O)NC3C(=O)N[C@H](C(=O)N[C@@H](C(=O)O)c4cc(O)cc(O)c4-c4cc3ccc4O)[C@H](O)c3ccc(c(Cl)c3)Oc3cc2cc(c3OC2OC(CSc3nccc(C(F)(F)F)n3)C(O)C(O)C2OC2CC(C)(N)C(O)C(C)O2)Oc2ccc(cc2Cl)[C@H]1O (stereo partly shown) [LX] | 5 (≈ 3.1 µM) | 2.5 (≈ 1.55 µM) | 5 (≈ 3.1 µM) | 5 (≈ 3.1 µM) | 2.5 (≈ 1.55 µM) | > 50 | > 50 | – | – | – | – | – | – | –
CNC(CC(C)C)C(=O)NC1C(=O)NC(CC(N)=O)C(=O)NC2C(=O)NC3C(=O)NC(C(=O)NC(C(=O)O)c4cc(O)cc(O)c4-c4cc3ccc4O)C(O)c3ccc(c(Cl)c3)Oc3cc2cc(c3OC2OC(CO)C(O)C(O)C2OC2CC(C)(NCc3ccc(-c4ccc(Cl)cc4)cc3)C(O)C(C)O2)Oc2ccc(cc2Cl)C1O (stereo not shown) [N-4-(4-chlorophenyl)benzyl vancomycin, reference compound] | – | – | – | – | – | – | – | 0.08 (≈ 0.0485 µM) | 0.08 (≈ 0.0485 µM) | 0.08 (≈ 0.0485 µM) | 0.16 (≈ 0.097 µM) | 0.08 (≈ 0.0485 µM) | 13 µg/mL (≈ 7.88 µM) | 0.4 µg/mL (≈ 0.242 µM)
CCCCCCCCCCNC1(C)CC(OC2C(Oc3c4cc5cc3Oc3ccc(cc3Cl)C(O)C3NC(=O)C(NC(=O)C5NC(=O)C(CC(N)=O)NC(=O)C(NC(=O)C(CC(C)C)NC)C(O)c5ccc(c(Cl)c5)O4)c4ccc(O)c(c4)-c4c(O)cc(O)cc4C(C(=O)O)NC3=O)OC(CO)C(O)C2O)OC(C)C1O (stereo not shown) [N-decyl vancosamine vancomycin, reference compound] | – | – | – | – | – | – | – | 0.32 (≈ 0.201 µM) | 0.16 (≈ 0.101 µM) | 0.48 (≈ 0.302 µM) | 0.63 (≈ 0.396 µM) | 0.32 (≈ 0.201 µM) | 25 µg/mL (≈ 15.7 µM) | 3.2 µg/mL (≈ 2.01 µM)
CCCCCCCCCCNC1(C)CC(OC2C(Oc3c4cc5cc3Oc3ccc(cc3Cl)C(O)C3NC(=O)C(NC(=O)C5NC(=O)C(CC(N)=O)NC(=O)C(NC(=O)C(CC(C)C)NC)C(O)c5ccc(c(Cl)c5)O4)c4ccc(O)c(c4)-c4c(O)cc(O)cc4C(C(=O)O)NC3=O)OC(CI)C(O)C2O)OC(C)C1O (stereo not shown) [Vancosamine-N-decyl-glucose-C6-iodo-vancomycin] | – | – | – | – | – | – | – | 1.0 (≈ 0.588 µM) | 0.08 (≈ 0.0471 µM) | 0.32 (≈ 0.188 µM) | 1.3 (≈ 0.765 µM) | 0.12 (≈ 0.0706 µM) | 6.3 µg/mL (≈ 3.71 µM) | 0.4< μg/mL
CN[C@@H](CC(C)C)C(=O)N[C@H]1C(=O)N[C@@H](CC(N)=O)C(=O)N[C@H]2C(=O)NC3C(=O)N[C@H](C(=O)N[C@@H](C(=O)O)c4cc(O)cc(O)c4-c4cc3ccc4O)[C@H](O)c3ccc(c(Cl)c3)Oc3cc2cc(c3OC2OC(CNC(=O)C(F)(F)F)C(O)C(O)C2OC2CC(C)(N)C(O)C(C)O2)Oc2ccc(cc2Cl)[C@H]1O (stereo partly shown) [XL, Glucose-C6-trifluoroacetamide Vancomycin] | 1.3 (≈ 0.842 µM) | 1.3 (≈ 0.842 µM) | 1 (≈ 0.648 µM) | 0.48 (≈ 0.311 µM) | 5 (≈ 3.24 µM) | > 50 | 25 (≈ 16.2 µM) | – | – | – | – | – | – | –
CNC(CC(C)C)C(=O)NC1C(=O)NC(CC(N)=O)C(=O)NC2C(=O)NC3C(=O)NC(C(=O)NC(C(=O)O)c4cc(O)cc(O)c4-c4cc3ccc4O)C(O)c3ccc(c(Cl)c3)Oc3cc2cc(c3OC2OC(COS(=O)(=O)c3c(C)cc(C)cc3C)C(O)C(O)C2OC2CC(C)(N)C(O)C(C)O2)Oc2ccc(cc2Cl)C1O (stereo not shown) [XLI, Glucose-C6-mesitylenesulfonyl Vancomycin] | – | – | – | – | – | – | – | 1.3 (≈ 0.797 µM) | 1.3 (≈ 0.797 µM) | 1.3 (≈ 0.797 µM) | 0.63 (≈ 0.386 µM) | 1.3 (≈ 0.797 µM) | 50< μg/mL | 6.3 µg/mL (≈ 3.86 µM)

Source: patent US6710168B1, “Glycopeptide antibiotics, combinatorial libraries of glycopeptide antibiotics and methods of producing same” (The Trustees of the University of Princeton, priority 1999, dated 2004)
